Reference: patent publication US20180215788A1, “Compounds and Compositions for the Treatment of Ophthalmic Disorders” (Shire Human Genetic Therapies, Inc., priority 2017, published 2018)
*1 amine or outer side, *2 acyl side, *3 side chain or, on linkers, in order; H or OH if unused. Where a SMILES comes first, the peptide text is derived from it. [ ]: non-standard residue; d: D form. The star is where a group is joined. dOrn(Me2) = CN(C)CCC[C@@H](N)C(=O)O; X1 = O=C([C@H]1CCCN([*:1])C1)[*:2]; Hyp = O=C(O)[C@@H]1C[C@@H](O)CN1; NMeL = CN[C@@H](CC(C)C)C(=O)O; Octanoyl = CCCCCCCC(=O)*

System: normotensive dogs
Test: Pharmacodynamics (IOP) after single topical ocular dose of SEQ ID NO:1, latanoprost or their combination
Type: in vivo
Details: for maximum percent change in intraocular pressure compared to contralateral eye / intraocular pressure: female dogs; for maximum percent change in intraocular pressure compared to contralateral eye: 0.03% SEQ ID NO:1, 0.005% latanoprost, alone or adjunctive, FIG. 6; for intraocular pressure: topical ocular 0.005% latanoprost, 0.03% SEQ ID NO:1, alone or adjunctively, FIG. 7
Description: A study of the pharmacodynamics following a single ascending topical ocular dose of SEQ ID NO:1; latanoprost; or a latanoprost/SEQ ID NO:1 combination was undertaken in normotensive dogs.
Animals were not fasted prior to dose administration. As appropriate, latanoprost was administered first followed by SEQ ID NO:1 approximately 5 minutes later. […] After the dose was administered, the eye was allowed to close naturally. Each animal was then restrained for approximately 1 minute to prevent rubbing of the eyes. The right eye was dosed first. All measurement and collection times were based on the time of dosing of the second (left) eye.
Following arrival, animals were preconditioned (trained) to IOP measurement procedures three times daily (i.e. 07:00, 12:00, and 15:00±0.5 hours) at least three times/week for approximately seven weeks prior to Phase 1. Three readings/eye were taken using a TonoVet.
Intraocular pressure was measured at −1, 0 (predose), 1, 2, 4, 8, 12, 24, and 48 hours postdose (following the last dose, as applicable) for all animals in Group 1, Phases 1 through 10. Three readings/eye were taken using a TonoVet.
Animals selected for pharmacodynamics (Group 1) were administered SEQ ID NO:1 (12, 35, 105, or 210 μg/eye), latanoprost (0.35, 0.875, or 1.75 μg/eye), and latanoprost/SEQ ID NO:1 in combination to the right eye (OD) and vehicle or phosphate-buffered saline (PBS) to the left eye (OS).
Intraocular pressure (IOP) was measured at various time points from pre-dose to 48 hours post-dose.
Pharmacodynamic animals (Group 1) were unilaterally treated with a single topical ocular dose of latanoprost (0.001, 0.0025, and 0.005%), followed by approximately 5 minutes later with a dose of SEQ ID NO:1 0.03%, in the right eye (OD) only.

| SMILES | maximum percent change in intraocular pressure compared to contralateral eye | intraocular pressure | maximal delta decrease (Emax) in IOP, latanoprost dose response (dogs, latanoprost 0.001, 0.0025, 0.005% with SEQ ID NO:1 0.03%, FIG. 4) |
| --- | --- | --- | --- |
| CCCCCCCC(=O)N1CCC[C@H](C(=O)N[C@@H](Cc2ccccc2)C(=O)N[C@H](CCCN(C)C)C(=O)N[C@@H](CC(C)C)C(=O)N2C[C@H](O)C[C@H]2C(=O)N(C)[C@@H](CC(C)C)C(=O)N[C@@H](CC(=O)O)C(=O)N[C@@H](CCCNC(=N)N)C(=O)N[C@H](C(N)=O)[C@@H](C)CC)C1 [SEQ ID NO:1, Occ-Sni-Phe-orn(Me2)-Leu-Hyp-Nml-Asp-Arg-Ile-NH2] (Octanoyl-[X1]F[dOrn(Me2)]L[Hyp][NMeL]DRI-NH2) | 16% | 12 mmHg | – |
| CC(C)OC(=O)CCC/C=C\C[C@@H]1[C@@H](CC[C@@H](O)CCc2ccccc2)[C@H](O)C[C@@H]1O [latanoprost] | 21% | 12 mmHg | greater with increasing latanoprost concentrations, in combination with SEQ ID NO:1 |
